In assay [1] the test system is methicillin-sensitive Staphylococcus aureus. The experiment in a line: MIC by broth micro-dilution (CLSI), methicillin-sensitive S. aureus. It is filed as cell-based. As to conditions: Staphylococcus aureus, ATCC 29213 / MSSA, MSSA S. aureus ATCC29213; read-out: MIC.
Assay [2] deals with carbapenem sensitive Escherichia coli. The experiment in a line: MIC by broth micro-dilution (CLSI), carbapenem sensitive E. coli. It is filed as cell-based. To be noted: Escherichia coli, ATCC25922, ESBL −ve E. coli ATCC25922; read-out: MIC.
The test system of assay [3] is extended spectrum β lactamase (ESBL) SHV18 producing Klebsiella pneumoniae. The experiment in a line: MIC by broth micro-dilution (CLSI), ESBL SHV18 producing K. pneumoniae. It is filed as cell-based. As to conditions: Klebsiella pneumoniae, ATCC700603, 22 h, ESBL +ve (SHV-18) K. pneumoniae ATCC700603; read-out: MIC. Background: Broth dilution looks for growth in wells or tubes with falling amounts of substance.

The subject of assay [4] is carbapenemase producing K. pneumoniae. The assay is described as follows: MIC by broth micro-dilution (CLSI), carbapenemase producing K. pneumoniae. As to conditions: Klebsiella pneumoniae, ATCCBAA1705, KPC-2 K. pneumoniae ATCC BAA-1705; read-out: MIC. It counts as cell-based, Klebsiella pneumoniae.
Assay [5] deals with carbapenem sensitive Pseudomonas aeruginosa. The experiment in a line: MIC by broth micro-dilution (CLSI), carbapenem sensitive P. aeruginosa. It counts as cell-based. To be noted: Pseudomonas aeruginosa, ATCC27853, Meropenem susceptible P. aeruginosa ATCC27853; read-out: MIC.

Converted amounts (≈) assume the structure as drawn.

For the compound `CO/N=C(\C)C(=O)N[C@H](C)[C@H]1C(=O)N2C(C(=O)O)=C(S[C@@H]3CN[C@H](C(=O)N(C)C)C3)[C@H](C)[C@H]12` [Example 54], the MIC – broadly, the smallest concentration in the dilution series that meets the test's criterion for growth inhibition – in assay [1] is 1 µg/mL (≈ 2.08 µM); in assay [2] it was 8 µg/mL (≈ 16.6 µM); in assay [3] it was more than 128 µg/mL; in assay [4] it was more than 128 µg/mL; in assay [5], more than 128 µg/mL.
For `C[C@@H](NS(=O)(=O)Cc1ccccc1)[C@H]1C(=O)N2C(C(=O)O)=C(S[C@@H]3CN[C@H](C(=O)N(C)C)C3)[C@H](C)[C@H]12` [Example 16], the MIC is 4 µg/mL (≈ 7.45 µM) in assay [1]; 4 µg/mL (≈ 7.45 µM) in assay [2]; 64 µg/mL (≈ 119 µM) in assay [3]; 16 µg/mL (≈ 29.8 µM) in assay [4]; more than 128 µg/mL in assay [5].
As to `C[C@@H](NC(=O)C(F)F)[C@H]1C(=O)N2C(C(=O)O)=C(S[C@@H]3CN[C@H](C(=O)N4CC[C@H](n5cc(CN)nn5)C4)C3)[C@H](C)[C@H]12` [Example 176], the MIC in assay [1] is 2 µg/mL (≈ 3.43 µM); in assay [2], 1 µg/mL (≈ 1.72 µM); in assay [3], 4 µg/mL (≈ 6.87 µM); in assay [4], 8 µg/mL (≈ 13.7 µM); in assay [5], 8 µg/mL (≈ 13.7 µM).
As for `C[C@@H](NC(=O)C(F)F)[C@H]1C(=O)N2C(C(=O)O)=C(S[C@@H]3CN[C@H](C(=O)N4CC[C@H](NC(=N)N)C4)C3)[C@H](C)[C@H]12` [Example 195], the MIC was found to be 2 µg/mL (≈ 3.68 µM) in assay [1]; 0.5 µg/mL (≈ 0.92 µM) in assay [2]; 1 µg/mL (≈ 1.84 µM) in assay [3]; 4 µg/mL (≈ 7.36 µM) in assay [4]; 8 µg/mL (≈ 14.7 µM) in assay [5].
Taken in the same sequence, the figures for `CCOC(=O)C(=O)N[C@H](C)[C@H]1C(=O)N2C(C(=O)O)=C(S[C@@H]3CN[C@H](C(=O)N4CC[C@H](N)C4)C3)[C@H](C)[C@H]12` [Example 109] were 8 µg/mL (≈ 15.3 µM), 4 µg/mL (≈ 7.64 µM), 4 µg/mL (≈ 7.64 µM), 16 µg/mL (≈ 30.6 µM) and 4 µg/mL (≈ 7.64 µM).
With `C[C@@H](NS(=O)(=O)C(F)(F)F)[C@H]1C(=O)N2C(C(=O)O)=C(S[C@@H]3CN[C@H](CNS(N)(=O)=O)C3)[C@H](C)[C@H]12` [Example 19], the MIC in assay [1] was 1 µg/mL (≈ 1.81 µM); in assay [2] it was 1 µg/mL (≈ 1.81 µM); in assay [3] it was 8 µg/mL (≈ 14.5 µM); in assay [4] it was more than 128 µg/mL; in assay [5], 128 µg/mL (≈ 232 µM).
Regarding `C[C@@H](NC(=O)C(F)F)[C@H]1C(=O)N2C(C(=O)O)=C(SCc3cccnc3)[C@H](C)[C@H]12` [Example 96], the MIC in assay [1] is 1 µg/mL (≈ 2.43 µM); in assay [2], 4 µg/mL (≈ 9.72 µM); in assay [3], 64 µg/mL (≈ 156 µM); in assay [4], 32 µg/mL (≈ 77.8 µM); in assay [5] it was more than 128 µg/mL.
With `C[C@@H](NS(=O)(=O)C(F)(F)F)[C@H]1C(=O)N2C(C(=O)O)=C(S[C@@H]3CN[C@H](C(=O)N4CC[C@@H](O)C4)C3)[C@H](C)[C@H]12` [Example 34], the MIC was 4 µg/mL (≈ 7.19 µM) in assay [1]; 1 µg/mL (≈ 1.8 µM) in assay [2]; 8 µg/mL (≈ 14.4 µM) in assay [3]; 8 µg/mL (≈ 14.4 µM) in assay [4]; 128 µg/mL (≈ 230 µM) in assay [5].
With `C[C@@H](NC(=O)C(F)(F)CN)[C@H]1C(=O)N2C(C(=O)O)=C(S[C@@H]3CN[C@H](C(=O)N(C)C)C3)[C@H](C)[C@H]12` [Example 138], the MIC is 32 µg/mL (≈ 65.4 µM) in assay [1]; 4 µg/mL (≈ 8.17 µM) in assay [2]; 32 µg/mL (≈ 65.4 µM) in assay [3]; 64 µg/mL (≈ 131 µM) in assay [4]; more than 128 µg/mL in assay [5].
In the case of `CNCC(=O)N[C@H](C)[C@H]1C(=O)N2C(C(=O)O)=C(S[C@@H]3CN[C@H](C(=O)N(C)C)C3)[C@H](C)[C@H]12` [Example 112], the MIC in assay [1] was determined as 64 µg/mL (≈ 141 µM); in assay [2], 2 µg/mL (≈ 4.41 µM); in assay [3] it was 4 µg/mL (≈ 8.82 µM); in assay [4], 4 µg/mL (≈ 8.82 µM); in assay [5] it was 8 µg/mL (≈ 17.6 µM).
Turning to `C[C@@H](NS(=O)(=O)C(F)(F)F)[C@H]1C(=O)N2C(C(=O)O)=C(S[C@@H]3CN[C@H](C(=O)N4CCOCC4)C3)[C@H](C)[C@H]12` [Example 29], the MIC in assay [1] was 4 µg/mL (≈ 7.19 µM); in assay [2], 1 µg/mL (≈ 1.8 µM); in assay [3], 8 µg/mL (≈ 14.4 µM); in assay [4] it was more than 128 µg/mL; in assay [5], 128 µg/mL (≈ 230 µM).
Turning to `C[C@@H](NC(=O)CN(C)C)[C@H]1C(=O)N2C(C(=O)O)=C(S[C@@H]3CN[C@H](C(=O)N4CCNCC4)C3)[C@H](C)[C@H]12` [Example 182], the MIC in assay [1] amounted to 128 µg/mL (≈ 252 µM); in assay [2], 8 µg/mL (≈ 15.7 µM); in assay [3] it was 16 µg/mL (≈ 31.5 µM); in assay [4], 16 µg/mL (≈ 31.5 µM); in assay [5], 8 µg/mL (≈ 15.7 µM).
`C[C@@H](NC(=O)C(F)F)[C@H]1C(=O)N2C(C(=O)O)=C(S[C@@H]3CN[C@H](C(=O)N4CC[C@@H](ON)C4)C3)[C@H](C)[C@H]12` [Example 164]: the MIC stood at 1 µg/mL (≈ 1.93 µM) in assay [1]; 0.25 µg/mL (≈ 0.483 µM) in assay [2]; 1 µg/mL (≈ 1.93 µM) in assay [3]; 4 µg/mL (≈ 7.73 µM) in assay [4]; 32 µg/mL (≈ 61.8 µM) in assay [5].
Turning to `C[C@@H](NC(=O)OCC(F)(F)F)[C@H]1C(=O)N2C(C(=O)O)=C(S[C@@H]3CN[C@H](C(=O)N(C)C)C3)[C@H](C)[C@H]12` [Example 47], the minimum inhibitory concentration (MIC) in assay [1] is 2 µg/mL (≈ 3.93 µM); in assay [2] it was 2 µg/mL (≈ 3.93 µM); in assay [3], 128 µg/mL (≈ 252 µM); in assay [4] it was 64 µg/mL (≈ 126 µM); in assay [5], more than 128 µg/mL.
`C[C@@H](NC(=O)C(F)F)[C@H]1C(=O)N2C(C(=O)O)=C(SCCNC(=O)OC(C)(C)C)[C@H](C)[C@H]12` [Example 93]: the MIC in assay [1] was 16 µg/mL (≈ 34.5 µM); in assay [2], 128 µg/mL (≈ 276 µM); in assay [3], more than 128 µg/mL; in assay [4], more than 128 µg/mL; in assay [5], more than 128 µg/mL.
In the case of `C[C@@H](NC(=O)C(F)F)[C@H]1C(=O)N2C(C(=O)O)=C(S[C@@H]3CN[C@H](C(=O)N4CC[C@H](NS(=O)(=O)CCN)C4)C3)[C@H](C)[C@H]12` [Example 133], the MIC turned out to be 4 µg/mL (≈ 6.57 µM) in assay [1]; 1 µg/mL (≈ 1.64 µM) in assay [2]; 4 µg/mL (≈ 6.57 µM) in assay [3]; 8 µg/mL (≈ 13.1 µM) in assay [4]; 8 µg/mL (≈ 13.1 µM) in assay [5].
In the case of `C[C@@H](NS(=O)(=O)N(C)C)[C@H]1C(=O)N2C(C(=O)O)=C(S[C@@H]3CN[C@H](C(=O)N(C)C)C3)[C@H](C)[C@H]12` [Example 57], the MIC was 32 µg/mL (≈ 65.4 µM) in assay [1]; 4 µg/mL (≈ 8.17 µM) in assay [2]; 16 µg/mL (≈ 32.7 µM) in assay [3]; 128 µg/mL (≈ 261 µM) in assay [4]; more than 128 µg/mL in assay [5].
`C[C@@H](NC(=O)C(F)(F)C(F)(F)F)[C@H]1C(=O)N2C(C(=O)O)=C(S[C@@H]3CN[C@H](C(=O)N(C)C)C3)[C@H](C)[C@H]12` [Example 87]: the MIC was determined as 2 µg/mL (≈ 3.78 µM) in assay [1]; 1 µg/mL (≈ 1.89 µM) in assay [2]; 8 µg/mL (≈ 15.1 µM) in assay [3]; 8 µg/mL (≈ 15.1 µM) in assay [4]; 64 µg/mL (≈ 121 µM) in assay [5].
As for `C[C@@H](NS(=O)(=O)C(F)(F)F)[C@H]1C(=O)N2C(C(=O)O)=C(S[C@@H]3CN[C@H](C(=O)N4CC[C@@H](N)C4)C3)[C@H](C)[C@H]12` [Example 204], the MIC is 32 µg/mL (≈ 57.6 µM) in assay [1]; 8 µg/mL (≈ 14.4 µM) in assay [2]; more than 128 µg/mL in assay [3]; more than 128 µg/mL in assay [4]; more than 128 µg/mL in assay [5].
With `C[C@@H](NC(=O)C(F)F)[C@H]1C(=O)N2C(C(=O)O)=C(S[C@@H]3CN[C@H](C(=O)N4CC[N+](C)(CC(N)=O)CC4)C3)[C@H](C)[C@H]12` [Example 46], the MIC in assay [1] stood at 1 µg/mL; in assay [2] it was 1 µg/mL; in assay [3] it was 4 µg/mL; in assay [4] it was 8 µg/mL; in assay [5], 16 µg/mL.

(Values after patent publication US11180504B2 (ORCHID PHARMA LTD., priority 2016, dated 2021).)
